Source: article PMC10590419, “Structural and mechanistic insights into the inhibition of respiratory syncytial virus polymerase by a non-nucleoside inhibitor” (Communications Biology, 2023)
Several values for one entry are separate records, joined by “and”; a condition that tells them apart may be missing. Equal entries are not always repeated.

What was measured:
[1] = in vitro; conditions: human
[2] = in vitro; conditions: rhesus monkey
[3] = Cell viability of replicon cell line (CellTiter-Glo); format: cell-based; conditions: hamster, APC-126 cells (BHK-derived, stable RSV A2 replicon); APC-126, CellTiter-Glo
Procedure: The RSV subgenomic replicon system was licensed from Apath (Apath, NY, USA)[49],[50]. The BHK-derived cell line (APC-126) containing the stable RSV A2 replicon was cultured in DMEM/Hams F-12 medium supplemented with 10% (v/v) FBS (Gibco), 1% (v/v) penicillin (10,000 units/mL) and streptomycin (10,000 µg/mL) solution (Gibco), 1% (v/v) MEM non-essential amino acids solution (Gibco), 5% (v/v) Tryptose Phosphate Broth solution (29.5 g/l) (Sigma-Aldrich) and 10 µg/ml of blasticidin solution (Invivogen). Cells were maintained at 37 °C in a humidified 5% CO2 atmosphere. 5000 cells were plated in 96-well clear plates (Corning) in 100 µl/well of medium. […] Cell viability (CC50 and CC90) was measured with a CellTiter-Glo cell proliferation assay (Promega, 100 µl/well of reagent). Results were expressed as EC50 and EC90 values as well as CC50 and CC90 values.

[4] = biological target: human mitochondrial RNA polymerase (POLRMT) (Homo sapiens, UniProt O00411); assay: Mitochondrial RNA polymerase DdRp activity; format: biochemical
Chain of human mitochondrial RNA polymerase (POLRMT) (O00411 42-1230): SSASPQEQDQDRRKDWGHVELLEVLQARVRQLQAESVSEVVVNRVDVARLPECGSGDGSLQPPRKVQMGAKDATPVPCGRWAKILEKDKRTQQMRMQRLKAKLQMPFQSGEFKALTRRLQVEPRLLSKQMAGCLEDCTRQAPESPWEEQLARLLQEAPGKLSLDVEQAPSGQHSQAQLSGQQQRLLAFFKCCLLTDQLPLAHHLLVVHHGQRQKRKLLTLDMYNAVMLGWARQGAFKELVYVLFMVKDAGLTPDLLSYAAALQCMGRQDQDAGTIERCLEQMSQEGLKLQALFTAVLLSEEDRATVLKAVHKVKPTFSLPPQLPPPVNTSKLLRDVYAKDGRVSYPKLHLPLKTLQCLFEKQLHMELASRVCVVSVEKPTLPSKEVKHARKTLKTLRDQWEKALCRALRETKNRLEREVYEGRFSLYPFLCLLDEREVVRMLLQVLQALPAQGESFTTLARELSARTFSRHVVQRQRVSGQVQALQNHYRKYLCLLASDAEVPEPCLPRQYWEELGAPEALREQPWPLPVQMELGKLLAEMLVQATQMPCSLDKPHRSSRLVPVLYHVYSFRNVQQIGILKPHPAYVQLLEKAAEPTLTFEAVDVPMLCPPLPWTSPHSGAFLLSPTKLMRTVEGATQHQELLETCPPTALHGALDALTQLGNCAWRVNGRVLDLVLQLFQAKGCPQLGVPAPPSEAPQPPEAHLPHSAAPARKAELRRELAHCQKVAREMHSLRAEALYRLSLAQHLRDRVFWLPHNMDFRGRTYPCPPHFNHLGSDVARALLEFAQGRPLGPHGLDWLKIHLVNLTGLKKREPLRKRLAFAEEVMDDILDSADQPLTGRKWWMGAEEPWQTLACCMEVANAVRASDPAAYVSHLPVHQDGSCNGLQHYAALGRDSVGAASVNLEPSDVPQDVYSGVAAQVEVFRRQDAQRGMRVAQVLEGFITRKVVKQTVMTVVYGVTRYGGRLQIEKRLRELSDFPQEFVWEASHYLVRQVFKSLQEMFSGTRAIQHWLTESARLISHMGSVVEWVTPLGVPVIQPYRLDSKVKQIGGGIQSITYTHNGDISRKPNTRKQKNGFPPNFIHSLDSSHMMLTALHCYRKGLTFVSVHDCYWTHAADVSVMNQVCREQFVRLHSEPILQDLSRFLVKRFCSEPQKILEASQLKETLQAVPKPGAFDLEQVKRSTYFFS
Procedure: to the method described previously 1. A 25 nM solution of RSV MTase-CTD protein or RSV L+P complex was incubated with 0.7 µM or 1.8 µM purified synthetic RNA 5’-Gppp […]
[…] (RSV9) for the MTase-CTD or L+P complex, respectively; 2 µM or 0.17 µM S-adenosyl methionine (SAM) for the MTase-CTD or L–P complex, respectively; and 0.1 µM or 0.8 µM 3H-SAM (Perkin Elmer) for the MTase-CTD or L–P complex, respectively; in 50 mM Tris-HCl pH 8.0. Compounds, previously dissolved in DMSO were added at a final concentration of 50 µM or 200 µM. After 3 h incubation at 30°C, reactions were quenched by a 20-fold dilution in ice cold water. […] They were then soaked with scintillation fluid (Perkin Elmer), and 3H-methyl transfer to the RNA substrates was determined using a Wallac MicroBeta TriLux Liquid Scintillation Counter. […]
Human DNA polymerases alpha (CHIMERx) at 5 U/ml, beta (CHIMERx) at 0.5 U/ml and gamma (Abcam) at 0.1 mg/ml were incubated with the tested inhibitors at specified concentrations, and a reaction mix composed of 62 µg/ml activated calf thymus DNA, dGTP (2 µM), dATP (2 µM), dCTP (2 µM), [ 3H]dTTP (0.05 µCi/µl), 0.1 mg/ml BSA and a buffer composed of Tris-HCl pH 8 (50 mM), MgCl 2 (5 mM), KCl (60 mM), and DTT (4 mM.) in a total volume of 50 µl. […] Radioactivity was measured via liquid scintillation counting (MicroScint-20, 40µl) on a TriLux apparatus. […]

[5] = biological target: RSV MTase-CTD protein (Human respiratory syncytial virus A, UniProt P28887); assay: Methyltransferase filter-binding assay; format: biochemical; conditions: for MTase activity, RNA+compound+RSV MTase-CTD, CPM: three technical replicates
Chain of RSV MTase-CTD protein (P28887 1755-2165): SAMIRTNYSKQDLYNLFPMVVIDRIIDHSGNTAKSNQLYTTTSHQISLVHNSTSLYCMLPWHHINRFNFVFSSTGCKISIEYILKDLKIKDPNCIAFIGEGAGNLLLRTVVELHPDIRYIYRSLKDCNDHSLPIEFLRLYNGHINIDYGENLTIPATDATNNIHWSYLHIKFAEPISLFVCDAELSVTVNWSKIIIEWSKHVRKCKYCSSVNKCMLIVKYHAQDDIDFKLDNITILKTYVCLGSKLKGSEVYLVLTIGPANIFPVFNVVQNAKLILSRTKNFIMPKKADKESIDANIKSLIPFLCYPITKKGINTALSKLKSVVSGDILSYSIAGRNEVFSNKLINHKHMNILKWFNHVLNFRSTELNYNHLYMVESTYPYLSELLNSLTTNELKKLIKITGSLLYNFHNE

## COc1cc(C(=O)NC[C@](O)(c2cc(C(C)(C)O)c(F)c(-c3ccc(F)cc3)n2)C(F)(F)F)cc2cc(C)nnc12 [JNJ-8003]
[1]
  CC50: > 25 µM
[2]; Median CC50, LLC-MK2, parallel to HMPV assay
  CC50: 14 µM
[2]; Median CC50, LLC-MK2, parallel to PIV-1 assay
  CC50: 18 µM
[2]; Median CC50, LLC-MK2, parallel to PIV-3 assay
  CC50: 19 µM
[3]
  CC50 at 3 days: 11 µM
[4]
  IC50: > 100 µM
[5]; 50 uM
  MTase activity, RNA+compound+RSV MTase-CTD, CPM: 32508 CPM and 30594 CPM and 30169 CPM
[5]; 200 uM
  MTase activity, RNA+compound+RSV MTase-CTD, CPM: 26082 CPM and 22767 CPM and 27924 CPM
[5]; recombinant MTase-CTD fragment
  impact on MTase activity (in words): no impact
